# In publication PMC6820105, “Data on synthesis, ADME and pharmacological properties and early safety pharmacology evaluation of a series of novel NURR1/NOT agonist potentially useful for the treatment of Parkinson's disease” (Data in Brief, 2019):
# Like-named read-outs stand apart in the source and are kept apart here.
# Key:
# [1] = Plasma and heart concentrations after 5-min i.v. administration in anesthetized male Hartley guinea pigs; assay type: in vivo; settings: iv, guinea pig, 10 mg/kg 5-min i.v.
# Procedure: Cpd 38 was dissolved in a 75% PEG400 aqueous solution and administered to guinea pigs (n = 6) at 10 mg/kg as a single 5-min intravenous infusion under a volume of 0.5 mL/kg. Control animals (n = 10) received the vehicle only, under the same experimental conditions.
# Blood samples were drawn from a carotid artery at 10 and 30 minutes after the beginning of the drug perfusion and after centrifugation plasma samples were stored frozen until analysis.
# At the end of the experiment (around 30 minutes following the beginning of the drug perfusion), the heart was removed and a few grams of tissue were collected from right and left ventricles stored frozen at - 20 °C until analysis.
# Analysis of samples was performed using an exploratory LC-MS-MS assay method. Plasma (LOQ of 2 ng/mL) and tissue (LOQ of 10 ng/g) concentrations of Cpd 38 (expressed as active ingredient).were determined.
# [2] = Plasma and heart concentrations after 5-min i.v. administration in anesthetized mongrel dogs; assay type: in vivo; settings: iv, dog, 10 mg/kg 5-min i.v.
# Procedure: Cpd 38 was dissolved in a 75% PEG400 aqueous solution and administered to dogs (n = 3) at 10 mg/kg as a single 5-min intravenous infusion under a volume of 0.5 mL/kg. Control animals (n = 3) received the vehicle only, under the same experimental conditions.
# Blood samples were drawn from a femoral artery at 10 and 60 minutes after the beginning of the drug perfusion and after centrifugation plasma samples were stored frozen at −20 °C until analysis.
# At the end of the experiment (around 60 minutes following the beginning of the drug perfusion), the heart was removed and a few grams of tissue were collected from right and left ventricles stored frozen at - 20 °C until analysis.
# Analysis of samples was performed using an exploratory LC-MS-MS assay method. Plasma (LOQ of 2 ng/mL) and tissue (LOQ of 3 ng/g) concentrations of Cpd 38 were determined.
# [3] = system: anesthetized mongrel dogs; test: Hemodynamic, electrocardiographic and electrophysiological effects in anesthetized mongrel dogs; assay type: in vivo; settings: dog, 10 mg/kg single 5-min i.v. infusion, monitored up to 60 min, n = 3
# Procedure: Six fasted adult mongrel dogs (weighing 18–26 kg) were anesthetized with 20 mg/kg sodium thiopental i.v. Animals were artificially ventilated with a gaseous mixture composed of O^2/air supplemented with around 1.5% end-tidal fraction of isoflurane. Tidal volume and respiratory rate was set at 20 mL/kg and 16 breaths/min. Arterial blood gas was controlled and respiratory adjusted to maintain pH between 7.36 and 7.44, PaO^2 > 80 mmHg and PaCO^2 < 40 mmHg. Four limbs electrodes were positioned to obtain a surface ECG. Two bipolar electrodes were positioned in the right atrium via a jugular access, one to record the atrial electrogram and the second one to stimulate the atrium. A bipolar electrode and a quadripolar electrode were inserted via venous and arterial femoral access and positioned in the right ventricular apex and in the His bundle region, respectively. These electrodes were connected to a programmable stimulator and to a computerized physiograph system. […]
# The auricular diastolic stimulation threshold was evaluated with rectangular current pulse (2 ms duration) increased in steps of 0.1 mA and delivered at fixed rate pacing (S1S1) of 400 or 350 ms in function of animal basal cycle length. […]
# [4] = system: anesthetized male Hartley guinea pigs; test: Hemodynamic and electrocardiographic effects in anesthetized male Hartley guinea pigs; assay type: in vivo; settings: guinea pig, 10 mg/kg single 5-min i.v. infusion, monitored up to 30 min, n = 6
# Procedure: Male Hartley guinea pigs (weighing 400–500 g) were anesthetized with 35 mg/kg sodium pentobarbital i.p. and let under spontaneous breathing conditions. The body temperature was maintained at 37.5 ± 0.5 °C throughout the experiment. For implantation of vascular catheters, cutaneous incision, subcutaneous and muscular dissections were performed after application of local anesthetic (lidocain, 20 mg/kg). A carotid artery and a jugular vein were catheterized to allow recording of arterial blood pressure and intravenous administration of the drug, respectively. The arterial micromanometer catheter was connected to a pressure transducer. For the electrocardiogram recording, five electrodes were inserted in the subcutaneous layer of fore- and hind-limb. The pressure transducer and ECG electrodes were linked to Gould pre-amplifiers. The amplifiers were connected to a Notocord-Hem computerized data acquisition system and recorded at a sampling rate of 1000 Hz. Either lead I or lead II were recorded, depending on which the better separation of T wave from P wave of the next complex was achieved.
# Cpd 38 was dissolved in a 75% PEG400 aqueous solution and administered to guinea pigs (n = 6) at 10 mg/kg as a single 5-min intravenous infusion under a volume of 0.5 mL/kg. Control animals (n = 10) received the vehicle only, under the same experimental conditions. […]
# [5] = molecular target: NURR1/NOT nuclear receptor (Homo sapiens, UniProt P43354); test: Gal4 reporter gene assay (EC50 / Emax Gal4); assay type: cell-based; settings: for Emax Gal4: Table 1
# NURR1/NOT nuclear receptor, sequence (P43354 whole entry, the tested form may be a part): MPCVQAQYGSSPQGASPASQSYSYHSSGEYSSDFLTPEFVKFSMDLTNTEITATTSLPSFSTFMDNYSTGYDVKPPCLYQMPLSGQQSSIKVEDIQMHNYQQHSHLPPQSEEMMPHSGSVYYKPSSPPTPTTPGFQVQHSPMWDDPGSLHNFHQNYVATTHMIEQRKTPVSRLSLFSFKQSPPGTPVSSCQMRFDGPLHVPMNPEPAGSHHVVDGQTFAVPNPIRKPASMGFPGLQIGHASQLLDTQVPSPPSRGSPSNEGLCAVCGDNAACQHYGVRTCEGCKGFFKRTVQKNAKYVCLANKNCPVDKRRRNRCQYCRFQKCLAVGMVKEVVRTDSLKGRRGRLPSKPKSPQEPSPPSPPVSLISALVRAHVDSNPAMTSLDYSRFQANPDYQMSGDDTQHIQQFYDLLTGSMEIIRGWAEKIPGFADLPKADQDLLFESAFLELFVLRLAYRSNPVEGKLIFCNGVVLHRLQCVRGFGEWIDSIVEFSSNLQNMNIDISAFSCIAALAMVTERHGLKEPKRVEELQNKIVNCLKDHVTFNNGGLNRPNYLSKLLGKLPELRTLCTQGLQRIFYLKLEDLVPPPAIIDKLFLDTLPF
# [6] = heart (right and left ventricles), read-out: Heart concentration
# [7] = plasma, mean ± SD, n = 6, read-out: Total plasma concentration
# [8] = plasma, read-out: Total plasma concentration
# [9] = plasma, mean ± SD, n = 3, read-out: Total plasma concentration
# [10] = Table 1, replacements of the hydroxymethyl of cpd 4, read-out: EC50 Gal4
smiles,measurement,setting,value
"CC(C)(O)c1cccc(-c2ccc3nc(-c4ccc(Cl)cc4)cn3c2)c1 [Cpd 38, 2-(3-[2-(4-Chlorophenyl)imidazo[1,2-a]pyridin-6-yl]phenyl)propan-2-ol]",concentration at 30 min,"[1]; heart (right and left ventricles), mean ± SD, n = 6, read-out: Heart concentration",6010 ± 964 ng/g
same,concentration at 30 min,[1]; [6],16.6 µM
same,concentration at 10 min,[1]; [7],4660 ± 1350 ng/mL
same,concentration at 10 min,[1]; [8],12.8 µM
same,concentration at 30 min,[1]; [7],2570 ± 533 ng/mL
same,concentration at 30 min,[1]; [8],7.1 µM
same,concentration at 60 min,"[2]; heart (right and left ventricles), mean ± SD, n = 3, read-out: Heart concentration",14600 ± 2700 ng/g
same,concentration at 60 min,[2]; [6],40.2 µM
same,concentration at 10 min,[2]; [9],23400 ± 2830 ng/mL
same,concentration at 10 min,[2]; [8],64.5 µM
same,concentration at 60 min,[2]; [9],10100 ± 769 ng/mL
same,concentration at 60 min,[2]; [8],27.8 µM
same,"Hemodynamic, ECG and electrophysiological effects",[3],"No major hemodynamic, ECG and electrophysiological effects were observed"
same,Hemodynamic and ECG effects,[4],No major hemodynamic and ECG effects were observed
"OC1(c2cccc(-c3ccc4nc(-c5ccc(Cl)cc5)cn4c3)c2)CCOCC1 [Cpd 40, 4-(3-(2-(4-chlorophenyl)imidazo[1,2-a]pyridin-6-yl)phenyl)tetrahydro-2H-pyran-4-ol]",melting point,,224 to 225 °C
"CC(O)(CO)c1cccc(-c2ccc3nc(-c4ccc(Cl)cc4)cn3c2)c1 (stereo not drawn) [Cpd 41, 2-(3-(2-(4-chlorophenyl)imidazo[1,2-a]pyridin-6-yl)phenyl)propane-1,2-diol]",melting point,,192 to 194 °C
"Cc1cccc(-c2ccc3nc(-c4ccc(Cl)cc4)cn3c2)c1 [Cpd S1, 2-(4-Chlorophenyl)-6-(m-tolyl)imidazo[1,2-a]pyridine]",melting point,,145 to 147 °C
"COCc1cccc(-c2ccc3nc(-c4ccc(Cl)cc4)cn3c2)c1 [Cpd S2, 2-(4-Chlorophenyl)-6-(3-(methoxymethyl)phenyl)imidazo[1,2-a]pyridine]",melting point,,135 to 137 °C
"CN(C)Cc1cccc(-c2ccc3nc(-c4ccc(Cl)cc4)cn3c2)c1 [Cpd S3, 1-(3-(2-(4-chlorophenyl)imidazo[1,2-a]pyridin-6-yl)phenyl)-N,N-dimethylmethanamine]",melting point,,290 to 292 °C
"Clc1ccc(-c2cn3cc(-c4cccc(CN5CCCC5)c4)ccc3n2)cc1 [Cpd S4, 1-(3-(2-(4-chlorophenyl)imidazo[1,2-a]pyridin-6-yl)phenyl)-N-pyrolidine]",EC50,[5]; [10],> 3000 nM
"Clc1ccc(-c2cn3cc(-c4cccc(CN5CCOCC5)c4)ccc3n2)cc1 [Cpd S5, 1-(3-(2-(4-chlorophenyl)imidazo[1,2-a]pyridin-6-yl)phenyl)-N-morpholine]",EC50,[5]; [10],> 3000 nM
"NC(=O)c1cccc(-c2ccc3nc(-c4ccc(Cl)cc4)cn3c2)c1 [Cpd S7, 3-(2-(4-chlorophenyl)imidazo[1,2-a]pyridin-6-yl)benzamide]",Emax Gal4,[5],210 ± 5
same,EC50,[5]; [10],1580 ± 35 nM
same,melting point,,246 to 248 °C
"CNC(=O)c1cccc(-c2ccc3nc(-c4ccc(Cl)cc4)cn3c2)c1 [Cpd S8, 3-(2-(4-chlorophenyl)imidazo[1,2-a]pyridin-6-yl)-N-methylbenzamide]",Emax Gal4,[5],226 ± 66
same,EC50,[5]; [10],87 ± 28 nM
same,melting point,,225 to 227 °C
"CCN(CC)C(=O)c1cccc(-c2ccc3nc(-c4ccc(Cl)cc4)cn3c2)c1 [Cpd S9, 3-(2-(4-chlorophenyl)imidazo[1,2-a]pyridin-6-yl)-N,N-diethylbenzamide]",melting point,,162 to 164 °C
"N#Cc1cccc(-c2ccc3nc(-c4ccc(Cl)cc4)cn3c2)c1 [Cpd S10, 3-(2-(4-chlorophenyl)imidazo[1,2-a]pyridin-6-yl)benzonitrile]",melting point,,195 to 197 °C
"CC(C)CC(O)c1cccc(-c2ccc3nc(-c4ccc(Cl)cc4)cn3c2)c1 (stereo not drawn) [Cpd S15, 1-(3-(2-(4-chlorophenyl)imidazo[1,2-a]pyridin-6-yl)phenyl)-3-methylbutan-1-ol]",EC50,"[5]; Table 2, alkyl or aryl groups on the carbinol, read-out: EC50 Gal4 t",> 3000 nM
